Experimental data taken from PubChem BioAssay (NCI).
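Where inhibition never reached the appropriate level, the endpoint shown equals the highest concentration tested. Otherwise, values were interpolated linearly from a five-concentration, 48-hour dose response in 96-well plates. GI50 marks 50% less growth. TGI marks complete inhibition of growth.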

Assays:
Assay in all cases: growth of human tumour cells (NCI), 48 h
SF-539 CNS = test system: SF-539 CNS
HT29 colon = test system: HT29 colon
CCRF-CEM leukemia = test system: CCRF-CEM leukemia
HCT-116 colon = test system: HCT-116 colon
SN12C renal = test system: SN12C renal
OVCAR-3 ovarian = test system: OVCAR-3 ovarian
ACHN renal = test system: ACHN renal
MDA-MB-435 = test system: MDA-MB-435
SK-OV-3 ovarian = test system: SK-OV-3 ovarian
NCI/ADR-RES ovarian = test system: NCI/ADR-RES ovarian
HOP-92 NSCLC = test system: HOP-92 NSCLC
NCI-H23 lung = test system: NCI-H23 lung
EKVX NSCLC = test system: EKVX NSCLC
NCI-H226 lung = test system: NCI-H226 lung
DU-145 prostate = test system: DU-145 prostate
LOX IMVI melanoma = test system: LOX IMVI melanoma
MALME-3M melanoma = test system: MALME-3M melanoma
RPMI-8226 leukemia = test system: RPMI-8226 leukemia
SW-620 colon = test system: SW-620 colon
UACC-257 melanoma = test system: UACC-257 melanoma
786-0 renal = test system: 786-0 renal
HL-60(TB) leukemia = test system: HL-60(TB) leukemia
SNB-19 CNS = test system: SNB-19 CNS
SF-268 CNS = test system: SF-268 CNS
UACC-62 melanoma = test system: UACC-62 melanoma
U251 CNS = test system: U251 CNS
SNB-75 CNS = test system: SNB-75 CNS
A498 renal = test system: A498 renal
SK-MEL-28 melanoma = test system: SK-MEL-28 melanoma
BT-549 breast = test system: BT-549 breast
KM12 colon = test system: KM12 colon
HS 578T breast = test system: HS 578T breast
IGROV1 ovarian = test system: IGROV1 ovarian
MOLT-4 leukemia = test system: MOLT-4 leukemia
PC-3 prostate = test system: PC-3 prostate
SK-MEL-5 melanoma = test system: SK-MEL-5 melanoma
RXF 393 renal = test system: RXF 393 renal
UO-31 renal = test system: UO-31 renal
NCI-H460 lung = test system: NCI-H460 lung
HCC-2998 colon = test system: HCC-2998 colon
A549 NSCLC = test system: A549 NSCLC
MCF7 breast = test system: MCF7 breast
SR leukemia = test system: SR leukemia
SK-MEL-2 melanoma = test system: SK-MEL-2 melanoma
K-562 leukemia = test system: K-562 leukemia
OVCAR-8 ovarian = test system: OVCAR-8 ovarian
SF-295 CNS = test system: SF-295 CNS
HOP-62 NSCLC = test system: HOP-62 NSCLC
M14 melanoma = test system: M14 melanoma
T-47D breast = test system: T-47D breast
MDA-MB-231 breast = test system: MDA-MB-231 breast
HCT-15 colon = test system: HCT-15 colon
OVCAR-5 ovarian = test system: OVCAR-5 ovarian
TK-10 renal = test system: TK-10 renal
OVCAR-4 ovarian = test system: OVCAR-4 ovarian
CAKI-1 renal = test system: CAKI-1 renal
NCI-H522 lung = test system: NCI-H522 lung

Compound `O=C1N[C@@H]2[C@@H](O)[C@@H](O)[C@H](O)C[C@H]2c2cc3c(c(O)c21)OCO3` has a GI50 (SF-539 CNS) of 101 nM, a TGI (SF-539 CNS) of 548 nM and a GI50 (HT29 colon) of 119 nM. It also gave a TGI (HT29 colon) of 1050 nM, a GI50 (CCRF-CEM leukemia) of 105 nM and a GI50 (HCT-116 colon) of 66 nM. For the same compound, the TGI (HCT-116 colon) was 1070 nM, the GI50 (SN12C renal) was 93.6 nM and the TGI (SN12C renal) was 1030 nM. For the same compound, the GI50 (OVCAR-3 ovarian) was 147 nM, the TGI (OVCAR-3 ovarian) was 794 nM and the GI50 (ACHN renal) was 132 nM. For the same compound, the TGI (ACHN renal) was 825 nM, the GI50 (MDA-MB-435) was 113 nM and the TGI (MDA-MB-435) was 648 nM. For the same compound, the GI50 (SK-OV-3 ovarian) was 211 nM, the TGI (SK-OV-3 ovarian) was 2100 nM and the GI50 (NCI/ADR-RES ovarian) was 223 nM. For the same compound, the TGI (NCI/ADR-RES ovarian) was 1650 nM, the GI50 (HOP-92 NSCLC) was 86.8 nM and the TGI (HOP-92 NSCLC) was 890 nM. For the same compound, the GI50 (NCI-H23 lung) was 102 nM, the TGI (NCI-H23 lung) was 544 nM and the GI50 (EKVX NSCLC) was 193 nM. The TGI (EKVX NSCLC) was 1260 nM, the GI50 (NCI-H226 lung) was 128 nM and the TGI (NCI-H226 lung) was 699 nM. For the same compound, the GI50 (DU-145 prostate) was 90.7 nM, the TGI (DU-145 prostate) was 647 nM and the GI50 (LOX IMVI melanoma) was 53.6 nM. The TGI (LOX IMVI melanoma) was 224 nM, the GI50 (MALME-3M melanoma) was 128 nM and the TGI (MALME-3M melanoma) was 537 nM. It also gave a GI50 (RPMI-8226 leukemia) of 169 nM, a TGI (RPMI-8226 leukemia) of 687 nM and a GI50 (SW-620 colon) of 91.8 nM. It also gave a TGI (SW-620 colon) of 3.26 µM, a GI50 (UACC-257 melanoma) of 131 nM and a TGI (UACC-257 melanoma) of 894 nM. For the same compound, the GI50 (786-0 renal) was 174 nM, the TGI (786-0 renal) was 1590 nM and the GI50 (HL-60(TB) leukemia) was 97.3 nM. It also gave a TGI (HL-60(TB) leukemia) of 472 nM, a GI50 (SNB-19 CNS) of 73.7 nM and a TGI (SNB-19 CNS) of 899 nM. The GI50 (SF-268 CNS) was 144 nM, the TGI (SF-268 CNS) was 991 nM and the GI50 (UACC-62 melanoma) was 178 nM. It also gave a TGI (UACC-62 melanoma) of 830 nM, a GI50 (U251 CNS) of 73.6 nM and a TGI (U251 CNS) of 1060 nM. For the same compound, the GI50 (SNB-75 CNS) was 89.8 nM, the TGI (SNB-75 CNS) was 861 nM and the GI50 (A498 renal) was 200 nM. It also gave a TGI (A498 renal) of 541 nM, a GI50 (SK-MEL-28 melanoma) of 96.5 nM and a TGI (SK-MEL-28 melanoma) of 608 nM. The GI50 (BT-549 breast) was 206 nM, the TGI (BT-549 breast) was 803 nM and the GI50 (KM12 colon) was 77.8 nM. It also gave a TGI (KM12 colon) of 584 nM, a GI50 (HS 578T breast) of 113 nM and a TGI (HS 578T breast) of 713 nM. It also gave a GI50 (IGROV1 ovarian) of 207 nM, a TGI (IGROV1 ovarian) of 1470 nM and a GI50 (MOLT-4 leukemia) of 143 nM. The TGI (MOLT-4 leukemia) was greater than 100 µM, the GI50 (PC-3 prostate) was 193 nM and the TGI (PC-3 prostate) was 1630 nM. The GI50 (SK-MEL-5 melanoma) was 84.1 nM, the TGI (SK-MEL-5 melanoma) was 344 nM and the GI50 (RXF 393 renal) was 131 nM. The TGI (RXF 393 renal) was 562 nM, the GI50 (UO-31 renal) was 147 nM and the TGI (UO-31 renal) was 1110 nM. For the same compound, the GI50 (NCI-H460 lung) was 83.8 nM, the TGI (NCI-H460 lung) was 743 nM and the GI50 (HCC-2998 colon) was 95.7 nM. The TGI (HCC-2998 colon) was 418 nM, the GI50 (A549 NSCLC) was 185 nM and the TGI (A549 NSCLC) was 2230 nM. For the same compound, the GI50 (MCF7 breast) was 65.6 nM, the TGI (MCF7 breast) was 881 nM and the GI50 (SR leukemia) was 103 nM. The TGI (SR leukemia) was greater than 100 µM, the GI50 (SK-MEL-2 melanoma) was 98.4 nM and the TGI (SK-MEL-2 melanoma) was 415 nM. For the same compound, the GI50 (K-562 leukemia) was 83.4 nM, the TGI (K-562 leukemia) was greater than 100 µM and the GI50 (OVCAR-8 ovarian) was 100 nM. The TGI (OVCAR-8 ovarian) was 1390 nM, the GI50 (SF-295 CNS) was 157 nM and the TGI (SF-295 CNS) was 1050 nM. The GI50 (HOP-62 NSCLC) was 97.7 nM, the TGI (HOP-62 NSCLC) was 883 nM and the GI50 (M14 melanoma) was 81.3 nM. The TGI (M14 melanoma) was 357 nM, the GI50 (T-47D breast) was 79.9 nM and the TGI (T-47D breast) was 2120 nM. The GI50 (MDA-MB-231 breast) was 136 nM, the TGI (MDA-MB-231 breast) was 926 nM and the GI50 (HCT-15 colon) was 116 nM. It also gave a TGI (HCT-15 colon) of 1300 nM, a GI50 (OVCAR-5 ovarian) of 238 nM and a TGI (OVCAR-5 ovarian) of 1610 nM. The GI50 (TK-10 renal) was 264 nM, the TGI (TK-10 renal) was 1730 nM and the GI50 (OVCAR-4 ovarian) was 99.4 nM. The TGI (OVCAR-4 ovarian) was 975 nM, the GI50 (CAKI-1 renal) was 142 nM and the TGI (CAKI-1 renal) was 1160 nM. The GI50 (NCI-H522 lung) was 85.2 nM and the TGI (NCI-H522 lung) was 527 nM.
